Results on one molecule are retold here after ChEMBL document CHEMBL5727087, “Inhibitors of lysine gingipain” (2018).

Molecules are shown by their SMILES.

This assay can be described thus: Inhibition Assay: The specific assay conditions were as follows. Buffer: pH=7.5, 100 mM Tris-HCl, 75 mM NaCl, 2.5 mM CaCl2, 10 mM cysteine, 1% DMSO after all additions. Protein: 0.1 nM Kgp, isolated from culture of Porphyromonas gingivalis, as described in Pike et al. J. Biol. Chem. 1994, 269(1), 406, and Potempa and Nguyen. Current Protocols in Protein Scienc. 2007, 21.20.1-21.20.27. Fluorogenic substrate: 10 uM Z-His-Glu-Lys-MCA. Time=90 minutes. Temperature=37° C. Each compound: 10 concentrations, starting at either 100 uM or 100 nM, with lower concentrations generated by serial 3-fold dilutions. By testing a range of concentrations for each compound, the concentration required to inhibit the activity of lysine gingipain by 50% (the “IC50”) was determined. Under the described assay conditions, signal-to-noise was excellent, and Z factor was greater than 0.6.

Take `NCCCC[C@H](NC(=O)C1CCCC1)C(=O)COc1c(F)c(F)cc(F)c1F`: the IC50 (commonly the concentration that inhibits the measured activity by half) is less than 1 nM.
